Source: ChEMBL document CHEMBL1146425, “Two new antiprotozoal 5-methylcoumarins from Vernonia brachycalyx” (J Nat Prod, 1997)
pIC50: −log10 of the molar value.

What was measured:
[1] = Inhibition of phytohemagglutininin A-induced human lymphocyte proliferation assessed as radiolabeled thymidine uptake; format: cell-based
[2] = test system: Plasmodium falciparum; experiment: Antiplasmodial activity against chloroquine-sensitive Plasmodium falciparum 3D7 by [G-3H]hypoxanthine uptake; format: functional, organism-based
[3] = Inhibition of phytohemagglutininin A-induced human lymphocyte proliferation assessed as radiolabeled thymidine uptake at < 300 uM; format: cell-based
[4] = test system: Leishmania major; experiment: Antileishmanial activity against Leishmania major promastigotes assessed as inhibition of [3H]thymidine incorporation after 18 hrs by scintillation counting; format: functional, organism-based
[5] = test system: Plasmodium falciparum; experiment: Antiplasmodial activity against chloroquine-resistant Plasmodium falciparum Dd2 by [G-3H]hypoxanthine uptake; format: functional, organism-based

Cc1cccc2oc(=O)c3c(c12)O[C@@H](C)[C@@]3(C)CC(=O)[C@@H]1OC1(C)C
pIC50 [1]: 3.50
pIC50 [2]: 3.80
Activity [3]: Not Active
pIC50 [4]: 4.43
pIC50 [5]: 4.27

Cc1cccc2oc(=O)c3c(c12)O[C@H](C)[C@@]3(C)CC(=O)[C@@H]1OC1(C)C [CYCLOISOBRACHYCOUMARINONE EPOXIDE]
pIC50 [1]: 2.74
pIC50 [2]: 3.95
pIC50 [4]: 4.87
pIC50 [5]: 4.27
